# Laboratory results published in US6844354B1, “Agent for prophylaxis and treatment of interstitial pneumonia and pulmonary fibrosis” (Mitsubishi Pharma Corporation, priority 1999, dated 2005).
# Marks after values point to notes of the source that are not given here.
# Columns and labels:
# mouse neutrophil = assay: Cell chemotaxis (Boyden chamber), mouse neutrophil; assay type: cell-based; settings: 1.5 h, neutrophils, migration by IL-1. (5 ng/ml), 37° C. 90 min, n=6, mean±SEM, read-out: IC50 of suppression of migration
# Method: (§1) Mouse alveolar macrophage-derived cell line (MH-S cell), fibroblast (NIH3T3 cell) and mouse neutrophil were used. Casein was intraperitoneally administered to the mouse and the mouse neutrophil was isolated from ascites thereof after 6 h. The cell chemotaxis was measured by a Boyden chamber (chemotaxicell, KURABO, Japan). The pore size of the filter used was 5 μm for MH-S cell and neutrophil, and 8 μm for NIH3T3 cell. As a chemotactic factor, lipopolysaccharide (LPS, E.coli: B-4, Sigma, St Louis, Mo., USA) was used for MH-S cell, mouse interleukin 1β (IL-1β, Genzyme/techne, USA) was used for neutrophil, and a […] (PDGF-BB, UBI, Lake Placid, USA) was used for NIH3T3 cell. The chemotactic factors were added to a lower layer and Y-27632 were added to a higher layer at various concentrations. The reaction was carried out at 37° C. for 120 min for MH-S cell and NIH3T3 cell and 37° C. for 90 min for neutrophil. After the completion of the reaction, migrated cells were stained with Giemsa (Muto, CO., Ltd, Japan) and the cells were counted. The value is in mean±SEM.
# [1] = tested on: bleomycin-induced interstitial pneumonia (pulmonary fibrosis) model; assay: Number of inflammatory cells in bronchoalveolar lavage fluid (BALF) in bleomycin-induced model; assay type: in vivo, mouse
# Method: (§2) Female C57BL/6 mice (about 15 g, 6-week-old) in 4 mice per group (n=4) were intraperitoneally administered with bleomycin 5 times a day every other day (total dose: 200 mg/kg) to prepare a model with bleomycin-induced interstitial pneumonia (pulmonary fibrosis).
# Using the pulmonary fibrosis model administered with bleomycin as in Experimental Example 1, the effect of Y-27632 on the number of various inflammatory cells in BALF was examined.
# The dose of Y-27632 was administered every other day at the lo dose of 100 μg/kg in the same manner as in Experimental Example 2. BALF was recovered at day 7, day 14, day 21 and day 40 from the start of the bleomycin administration, and the number of total cells, macrophages, lymphocytes and neutrophils was counted (n=5). The number of total cells was measured by a hemocytometer. Smear preparations of the various cells in BALF were prepared by cytospin (Auto Smer CF-12D, Chiyoda seisakusho, Tokyo, Japan), stained with May-Gruenwald and subjected to the counting under a microscope.
# The results are shown in mean±SEM (n=5). For the test, (Satical analysis was performed One-way ANOVA test followed by Fisher's least significance test) was performed (*p<0.05; BLM group vs Y-27632 group) (§p<0.05; BLM group vs Normal group) (+p<0.05; Y-27632 group vs Normal group).
# [2] = tested on: bleomycin-induced interstitial pneumonia (pulmonary fibrosis) model; assay: Hydroxyproline content in bleomycin-induced interstitial pneumonia (pulmonary fibrosis) model; assay type: in vivo, mouse; settings: day 40
# Method: as §2
# (§3) Using the bleomycin-induced interstitial pneumonia (pulmonary fibrosis) model prepared in Experimental Example 1, the effect of the present invention on induced interstitial pneumonia (pulmonary fibrosis) was examined.
# (§4) Y-27632 was intraperitoneally administered immediately before bleomycin administration from the first day of bleomycin administration (0th) to day 8 (5th administration), and thereafter until day 40, by way of a single, alternate-day administration. At day 40, the level of fibrosis was checked by hydroxyproline content and tissue staining. The hydroxyproline content was measured according to the report of Tran et al. (Tran et al., J. Clin. Invest., 99: 608-617, 1997). The degree of fibrosis by tissue staining was evaluated by the Aschcroft score (Aschcroft et al., J. Clin. Pathol., 41: 467-70, 1988).
# The suppression percentage was calculated based on the bleomycin alone administration group as 0% suppression, and the physiological saline administration group as 100% suppression.
# [3] = tested on: Mouse alveolar macrophage-derived cell line (MH-S cell); assay: Cell chemotaxis (Boyden chamber), MH-S cell; assay type: cell-based; settings: 2 h, MH-S cells, migration by LPS (1 μg/ml), 37° C. 120 min, n=6, mean±SEM, read-out: IC50 of suppression of migration
# Method: as §1
# [4] = tested on: bleomycin-induced interstitial pneumonia (pulmonary fibrosis) model; assay: Pulmonary fibrosis level by tissue staining (Aschcroft score) in bleomycin-induced model; assay type: in vivo, mouse; settings: day 40
# Method: as §2, §3, §4
# Y-27632 suppressed the increase of Aschcroft score due to bleomycin administration at the dose of not less than 10 μg/kg (Table 2). In the Table, *:p<0.05, **:p<0.01.
# fibroblast (NIH3T3 cell) = assay: Cell chemotaxis (Boyden chamber), NIH3T3 cell; assay type: cell-based; settings: Mus musculus, 2 h; NIH3T3 cells, migration by PDGF-BB (10 ng/ml), 37° C. 120 min, n=6, mean±SEM; read-out: IC50 of suppression of migration
# Method: as §1
# ROCK-II gene = assay: Expression of ROCK-II gene in the lung, real time quantitative RT-PCR; assay type: in vivo, mouse
# Method: as §2
# The expression of ROCK-II gene in the lung at 7, 14, 21 and 40 days after the start of the bleomycin administration was measured, and so was the value of an animal free of bleomycin administration. The amount of the expression of the ROCK-II gene was measured according to a real time quantitative RT-PCR method. As the primer, the following sequence was used [forward: CATGGTGCATTGCGACACA (SEQ ID No. 1), reverse: […] (SEQ ID No. 2)]. The amount of expression of the ROCK-II gene was expressed relatively in [(Rock-II m RNA)/(GAPDH m RNA)] using the expression amount of GAPDH (glyceraldehyde-3-phosphate dehydrogenase) gene as a standard. The results are shown in mean±SEM (n=4). For the test, (Satical analysis was performed One-way ANOVA test followed by Fisher's least significance test) was performed.
# [5] = Y-27632 100 μg/kg every other day vs BLM group, days 7-40
# [6] = Y-27632 alone 1000 μg/kg (no bleomycin)
compound,measurement,setting,value
"C[C@@H](N)[C@H]1CC[C@H](C(=O)Nc2ccncc2)CC1 [Y-27632, (+)-trans-4-(1-aminoethyl)-1-(4-pyridylcarbamoyl)cyclohexane 2HCl.1H2O]",IC50,mouse neutrophil,8.4 ± 2.1 µM
same,Number of macrophages in BALF,[1]; [5],significantly lower results than BLM group
same,Number of neutrophils in BALF,[1]; [5],significantly lower results than BLM group
same,Number of total cells in BALF,[1]; [5],significantly lower results than BLM group
same,Lymphocyte counts in BALF,"[1]; Y-27632 100 μg/kg every other day, BLM, Y-27632 and Normal groups",did not show a significant difference among 3 groups
same,Suppression (%) of the increase of hydroxyproline content,[2]; [6],92.1%
same,Suppression (%) of the increase of hydroxyproline content,[2]; bleomycin + Y-27632 0.01 μg/kg i.p. alternate-day,−10.6%
same,Suppression (%) of the increase of hydroxyproline content,[2]; bleomycin + Y-27632 0.1 μg/kg i.p. alternate-day,28.2%
same,Suppression (%) of the increase of hydroxyproline content,[2]; bleomycin + Y-27632 1 μg/kg i.p. alternate-day,30.0%
same,Suppression (%) of the increase of hydroxyproline content,[2]; bleomycin + Y-27632 10 μg/kg i.p. alternate-day,38.6%
same,Suppression (%) of the increase of hydroxyproline content,[2]; bleomycin + Y-27632 100 μg/kg i.p. alternate-day,53.8%
same,Effect on the increase of hydroxyproline content due to bleomycin administration,[2]; i.p. alternate-day,dose-dependently suppressed
same,IC50,[3],4.8 ± 2 µM
same,Aschcroft score (mean ± standard error),[4]; [6],1.33 ± 0.21
same,Aschcroft score (mean ± standard error),[4]; bleomycin + Y-27632 0.1 μg/kg,2.79 ± 0.26
same,Aschcroft score (mean ± standard error),"[4]; bleomycin + Y-27632 10 μg/kg, p<0.01",1.85 ± 0.26**
same,Aschcroft score (mean ± standard error),"[4]; bleomycin + Y-27632 100 μg/kg, p<0.05",1.98 ± 0.41*
same,Dose suppressing the increase of Aschcroft score due to bleomycin administration,[4],not less than 10 μg/kg
same,IC50,fibroblast (NIH3T3 cell),1.6 ± 0.5 µM
bleomycin,Aschcroft score (mean ± standard error),[4]; bleomycin alone (total dose 200 mg/kg i.p.),3.54 ± 0.43
same,Expression amount of ROCK-II gene (ROCK-II mRNA/GAPDH mRNA) vs bleomycin non-administration group,"ROCK-II gene; day 7 and day 21, bleomycin total dose 200 mg/kg i.p.",significantly high
same,Increase of expression amount of ROCK-II gene relative to bleomycin non-administration group,"ROCK-II gene; day 21, bleomycin total dose 200 mg/kg i.p.",about 9 times
